Laboratory results reported in US20050272040A1, “Method for increasing synaptic growth or plasticity” (priority 2002, published 2005).

Columns and labels:
Type in all cases: cell-based, rat
[1] = tested on: Hippocampal neurons; test: Effect of inhibitors on BDNF-induced gene transcription (real time RT-PCR); conditions: for Effect of inhibitor on BDNF-induced VGF transcription / Effect of inhibitor on BDNF-induced Arc transcription / Effect of inhibitor on BDNF-induced EGR-1 transcription / Effect of inhibitor on BDNF-induced c-fos transcription: 30 min pre-incubation, K252a 200 nM, U0126 30 μM, PD98059 50 μM, U73122 10 μM, KN93 10 μM, LY294002 30 μM, H-89 1 μM, CC 1 μM; for Effect of inhibitor on BDNF-induced VGF transcription: BDNF 3 Hours; for Effect of inhibitor on BDNF-induced Arc transcription / Effect of inhibitor on BDNF-induced EGR-1 transcription / Effect of inhibitor on BDNF-induced c-fos transcription: BDNF 20 Minutes; for Effect on BDNF-induced transcription of the immediate early genes and VGF: BDNF 20 min for immediate early genes, 3 hr for VGF
Experimental: Signaling cascades involved in BDNF-mediated synaptic strengthening include mitogen-activated protein (MAP) kinase, phospholipase C-γ (PLC-γ) and phosphoinositide-3 kinase (PI3K) (Gottschalk et al. (1999) supra; Minichiello et al. (2002) supra; Ying et al. (2002); Mizuno et al. (2003) supra). To determine whether these transduction pathways are also required for BDNF transcriptional regulation of immediate early genes at 20 minutes and for VGF at 3 hours, pharmacological inhibitors were employed (Table 2).
Effect of inhibitors on BDNF-induced gene transcription. The regulation of BDNF-induced genes in the presence of inhibitors was determined by real time RT-PCR. Neurons were pre-incubated with inhibitors for 30 minutes prior to BDNF treatment (20 minutes for immediate early genes and 3 hours for VGF). […] “blocked” indicates significant reduction of transcription in the presence of inhibitor plus BDNF relative to BDNF alone (p<0.05, ANOVA, n=3).
Each experiment consisted of four groups: vehicle, inhibitor alone, BDNF, BDNF plus inhibitor. Data were normalized to GAPDH and expressed as a fold change of vehicle control.
(§1) cDNA (100 μl) was prepared from 2 μg control or BDNF-treated RNA using random primers and Superscript II reverse transcriptase. 25 μl PCR reactions were then carried out using gene specific primers designed by Primer Express software and TaqMan MGB probes (Applied Biosystems 7000 Sequence Detection System, Foster City, Calif.). Duplicate wells were included for each condition and primer pair. Primers specific to the housekeeping gene, glyceraldehyde-3-phosphate dehydrogenase (GAPDH) were used as an internal control. Data analysis was performed according to the protocol provided by Applied Biosystems.
Hippocampal neurons were pre-incubated with inhibitors for 30 min prior to BDNF treatment (20 min for IEGs and 3 hr for VGF). All inhibitors were purchased from Calbiochem, San Diego, Calif. K252a (200 nM), U0126 (30 μM), PD98059 (50 μM), U73122 (10 μM), KN93 (10 μM), LY294002 (30 μM), H-89 (1 μM) and chelerythrine chloride (CC, 1 μM). Pharmacological inhibitors were tested for efficacy by assaying downregulation of endogenous kinase phosphorylation in cell culture using Western blot (Y. Z. Du and C. F. Dreyfus, personal communication). Each experiment consisted of 4 groups: vehicle, inhibitor alone, BDNF, and BDNF plus inhibitor. Following inhibitor and BDNF treatments, RNA was isolated and subjected to real time RT-PCR as described above.

[2] = tested on: hippocampal cells; test: Whole-cell patch-clamp recordings of synaptic charge; conditions: for Effect on synaptic charge: perfusion of synthetic rat VGF peptide, 0.1 μM
Experimental: To examine the relationship between synaptic response and gene expression, an individual cell's electrophysiological response to BDNF was examined in conjunction with single-cell RT-PCR for Arc. […] Whole-cell patch-clamp recordings from 16 cells verified 0.8- to 4.5-fold increase in synaptic charge following 20 minutes BDNF exposure. […] A group of BDNF-treated cells presenting a minimal synaptic response was apparent. This group was categorized as non-responders (FIG. 1B) and the other cells showing a greater response to BDNF were classified as responders. To determine whether cellular basal activity influences the response to BDNF, the average synaptic charge pre-BDNF of the responders (36±13.1 pC, n=7) versus the non-responders (23.2±6.6 pC, n=9) was compared.
To explore a functional role for VGF in neuromodulation, whole-cell patch-clamp recordings on hippocampal cells were performed in the presence of synthetic VGF peptides. The electrophysiological profile of VGF peptides on hippocampal cells was similar to that observed for BDNF (Levine et al. (1996) supra). […] Enhanced synaptic activity was maintained for up to 25 minutes in the continued presence of Thr-Leu-Gln-Pro-62 (SEQ ID NO:14). […] The effects of both Ala-Gln-Glu-Glu-30 (SEQ ID NO:16) and Thr-Leu-Gln-Pro-62 (SEQ ID NO:14) peptides were dose-dependent, saturating at 0.1 μM.
Whole-cell patch clamp recordings were performed after 10-14 days in culture. Currents were recorded with an Axoclamp 200 amplifier, digitized at 2.5 kHz with an INDEC IDA 15125 interface, filtered at 5 kHz and stored. Recording parameters and stimulus protocols were controlled by custom software written with Borland C++ that utilizes device driver libraries supplied by INDEC. Data analysis programs were written with Microsoft Visual Basic. The. external bath solution for voltage clamp recordings was (in mM) 1.67 CaCl2, 1 MgCl2, 5.36 KCl, 137 NaCl, 17 glucose, 10 HEPES and 20 sucrose (neuron recording solution, NRS). The pipette solution contained (in mM) 105 Cs-methanesulfonate, 17.5 CsCl, 10 HEPES, 0.2 EGTA, 8 NaCl, 2 Mg-ATP, 2 Na-ATP, 0.3 Na-GTP, 20 phosphocreatinine, and 50 U/ml creatinine phosphokinase. All recordings were made at room temperature. The typical range of pipette resistance was 3-5 MΩ. Cell capacitance was 10-20 pF and access resistance was 7-20 MΩ. Vacuum perfusion system contained BDNF (50 ng/ml, Preprotech, Princeton, N.J.), NRS as a control or VGF peptides (0.1 μM=740 ng/ml). Three synthetic rat VGF peptides were used: Leu-Glu-Gly-Ser-28 (SEQ ID NO:15) amino acids 285-312 (amidated), Thr-Leu-Gln-Pro-62 (SEQ ID NO:14) amino acids 556-617 and Ala-Gln-Glu-Glu-30 (SEQ ID NO:16) amino acids 588-617. Each data point represents a cell from a separate dish and at least three different platings were used for each condition.
Data were analyzed by integrating the synaptic currents for each sweep (synaptic charge). The charge measurements for all sweeps in a 1 min period were averaged (binned). Baseline is considered the average synaptic charge during the 2 min period (−2 to 0 min) in NRS immediately prior to BDNF or VGF application. Fold increases were then determined by dividing the synaptic charge during BDNF or VGF exposure by the baseline. Recordings were rejected if either the 0-5 min binned time period or 5-10 min binned time period after switching during BDNF or VGF exposure was 2×SEM below baseline, indicating “run down”.

[3] = tested on: hippocampal cells; test: Real-time RT-PCR of genes induced by neurotrophin treatment of hippocampal cultures; design: key to NGF effect on Fra2 transcription / NGF effect on CyclinD1 transcription / NGF effect on c-fos transcription / NGF effect on Kv + 1.1 transcription / NGF effect on Na + ch transcription / NGF effect on SgII transcription / NGF effect on SSTR4 transcription / NGF effect on UNC5H2 transcription / NGF effect on NPY transcription / NGF effect on VGF transcription / NGF effect on EGR1 transcription / NGF effect on PTP1B transcription / NGF effect on Arc transcription: UC = unchanged; DOWN: down = decreased
Experimental: The molecular genetics underlying BDNF-evoked plasticity were examined by expression profiling using cDNA microarrays on a population of hippocampal cells in vitro. Synaptic effects of BDNF are observed within 20 minutes of exposure (Levine et al. (1996) supra; Lessmann and Heumann (1998) supra; Schinder et al. (2000) supra). A 3-hour BDNF treatment has been used to identify several genes with roles in synaptic plasticity (Thakker-Varia et al. (2001) supra). Consequently, to reveal immediate, as well as downstream transcriptional changes, both acute (20 minutes) and longer treatment (3 hours) with BDNF were used herein. […] Two independent Atlas arrays were performed using RNA from hippocampal cells treated for either 20 minutes or 3 hours of BDNF (50 ng/mL) and control sister cultures.
Of those genes selected, the regulation of 7% at 20 minutes and 40% at 3 hours were validated, although the magnitude of regulation was not always identical to that observed on the microarray. To focus on genes specifically involved in plasticity, a related neurotrophin, nerve growth factor (NGF), not inducing synaptic plasticity (Levine et al. (1996) supra), served as a control.
Time-mated pregnant rats were sacrificed by CO2 asphyxiation in accordance with institutional guidelines for care and use of animals. Fetuses were removed by caesarean section and transferred to a sterile petri dish with phosphate-buffered saline. Fetal hippocampi were dissected from surrounding brain tissue and meninges were completely removed. Low-density cultures of dissociated embryonic day 18 rat hippocampi (Sprague Dawley from Hilltop Laboratories, Scottsdale, Pa.) were prepared using standard methods (Thakker-Varia et al. (2001) supra). Briefly, pooled tissue from each litter was mechanically dissociated in nutrient medium containing 7.5% fetal bovine serum and plated on poly-D-lysine-coated culture dishes at 350,000 cells/dish. Cultures were maintained in serum-free medium (Thakker-Varia et al., 2001) for 10-14 days and contained pure neurons.
Total cellular RNA was prepared from neuronal cultures treated with either BDNF (50 ng/ml) or vehicle (water) for either 20 min or 3 hr by the guanidine isothiocyanate method and CsCl gradients (Thakker-Varia et al., 2001). DNAse-treated total RNA was prepared from neurotrophin or control hippocampal cultures and reverse transcribed using gene specific primers. Radioactively labeled probes were then hybridized to Atlas Arrays Rat 1.2 (Clontech, Palo Alto, Calif.) according to manufacturer's protocol. Arrays were performed in duplicate with an independent source of RNA. The hybridization pattern was analyzed on a phosphorimager and normalized to the global hybridization signal. Analysis was performed by Clontech using 1.7-fold change as criteria for significance. All transcriptional changes were confirmed by real time RT-PCR on independent samples (see below).
as §1

[4] = NGF as control neurotrophin, 20 minute section of Table 1
[5] = NGF as control neurotrophin, 3 hour section of Table 1

| Compound | Effect of inhibitor on BDNF-induced VGF transcription [1] | Effect of inhibitor on BDNF-induced Arc transcription [1] | Effect of inhibitor on BDNF-induced EGR-1 transcription [1] | Effect of inhibitor on BDNF-induced c-fos transcription [1] | Effect on BDNF-induced transcription of the immediate early genes and VGF [1] | further results |
| --- | --- | --- | --- | --- | --- | --- |
| COc1cccc(-c2cc(=O)c3ccccc3o2)c1N [PD98059] | Blocked | Blocked | Blocked | Blocked | blocked | – |
| COc1ccc2c(c1)CC[C@@H]1[C@@H]2CC[C@]2(C)[C@@H](NCCCCCCN3C(=O)C=CC3=O)CC[C@@H]12 [U73122] | Blocked | Blocked | – | Blocked | blocked | – |
| COc1ccc(S(=O)(=O)N(CCO)c2ccccc2CN(C)C/C=C/c2ccc(Cl)cc2)cc1 [KN93] | Blocked | Blocked | Blocked | Blocked | blocked | – |
| O=S(=O)(NCCNC/C=C/c1ccc(Br)cc1)c1cccc2cnccc12 [H-89] | – | – | – | – | did not affect gene expression | – |
| N#CC(=C(/N)Sc1ccccc1N)/C(C#N)=C(\N)Sc1ccccc1N [U0126] | Blocked | Blocked | Blocked | Blocked | blocked | – |
| Leu-Glu-Gly-Ser-28: synthetic rat VGF peptide, amino acids 285-312 (amidated), N-terminal region | – | – | – | – | – | Effect on synaptic charge [2]: no change in synaptic charge |
| COC(=O)[C@@]1(O)C[C@H]2O[C@]1(C)n1c3ccccc3c3c4c(c5c6ccccc6n2c5c31)C(=O)NC4 [K252a] | Blocked | Blocked | Blocked | Blocked | blocked | – |
| Thr-Leu-Gln-Pro-62: synthetic rat VGF peptide, amino acids 556-617, C-terminal portion of VGF (TLQP) | – | – | – | – | – | Saturating concentration of dose-dependent effect on synaptic charge [2]: 0.1 µM; Time to increased synaptic charge ([2]; after start of peptide perfusion): ≤ 5 min; Time enhanced synaptic activity was maintained ([2]; continued presence of peptide): up to 25 minutes; Effect on synaptic charge [2]: Increased synaptic charge |
| NGF: related neurotrophin, nerve growth factor, not inducing synaptic plasticity, served as a control | – | – | – | – | – | Effect of NGF on transcription of BDNF-induced genes [3]: did not affect transcription of most genes; NGF effect on Arc transcription [3, 4]: UC; NGF effect on EGR1 transcription [3, 4]: UC; NGF effect on c-fos transcription [3, 4]: UC; NGF effect on Arc transcription [3, 5]: UC; NGF effect on CyclinD1 transcription [3, 5]: UC; NGF effect on EGR1 transcription [3, 5]: UC; NGF effect on Fra2 transcription [3, 5]: DOWN; NGF effect on Kv + 1.1 transcription [3, 5]: UC; NGF effect on NPY transcription [3, 5]: DOWN; NGF effect on Na + ch transcription [3, 5]: UC; NGF effect on PTP1B transcription [3, 5]: UC; NGF effect on SSTR4 transcription [3, 5]: DOWN; NGF effect on SgII transcription [3, 5]: UC; NGF effect on UNC5H2 transcription [3, 5]: UC; NGF effect on VGF transcription [3, 5]: UC; NGF effect on c-fos transcription [3, 5]: UC |
